The values below come from the supplement of paper PMC10307832.

Assay in all cases: relative viability (nuclei count vs DMSO), 5 days (fraction); higher = more cells survive
Compound in experiment [1]: CC1CC(=O)N(C2=CN=C(N=C2N1C3CCCC3)NC4=C(C=C(C=C4)C(=O)NC5CCN(CC5)C)OC)C [NPK76-II-72-1] + N=C(N)NC(=N)NCCc1ccccc1 [Phenformin] (partner 250 µM)
In short, it runs like this:
(§1)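 The day after seeding in 1536-well plates, lung cancer cell lines were treated by pin tool with a single drug, or with a fixed anchor-drug dose together with five library-drug doses (not always all listed) in √10 steps. After 5 days, a combined fix-and-stain solution (final 0.05% Triton X-100, 1% formaldehyde, 1 ug/ml Hoechst) was added. Nuclei counted on 4× images gave relative viability as treated counts over vehicle counts, reported as the median of duplicate plates.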

Compound in the experiment “BI-2536 + Pictilisib”: CC[C@@H]1C(=O)N(C)c2cnc(Nc3ccc(C(=O)NC4CCN(C)CC4)cc3OC)nc2N1C1CCCC1 [BI-2536] + CS(=O)(=O)N1CCN(Cc2cc3nc(-c4cccc5[nH]ncc45)nc(N4CCOCC4)c3s2)CC1 [Pictilisib] (partner 1 µM)
In short, it runs like this:
as §1

Compound in the experiment “BI-2536 + Trametinib”: CC[C@@H]1C(=O)N(C)c2cnc(Nc3ccc(C(=O)NC4CCN(C)CC4)cc3OC)nc2N1C1CCCC1 [BI-2536] + CC(=O)Nc1cccc(-n2c(=O)n(C3CC3)c(=O)c3c(Nc4ccc(I)cc4F)n(C)c(=O)c(C)c32)c1 [Trametinib] (partner 0.02 µM)
In short, it runs like this:
as §1

Compound in the experiment “BI-2536 + Vorinostat”: CC[C@@H]1C(=O)N(C)c2cnc(Nc3ccc(C(=O)NC4CCN(C)CC4)cc3OC)nc2N1C1CCCC1 [BI-2536] + O=C(CCCCCCC(=O)Nc1ccccc1)NO [Vorinostat] (partner 1 µM)
In short, it runs like this:
as §1

Regarding 201T, the relative viability in experiment [1] (first compound 0.01 µM) came to 0.423; in experiment [1] (first compound 0.03162 µM), 0.461; in experiment [1] (first compound 0.1 µM), 0.407; in experiment [1] (first compound 0.3162 µM), 0.461; in experiment [1] (first compound 1 µM), 0.433; with BI-2536 + Pictilisib (first compound 0.01 µM) it was 0.686. The relative viability came to 0.618 in the experiment with BI-2536 + Pictilisib (first compound 0.03162 µM); 0.586 with BI-2536 + Pictilisib (first compound 0.1 µM); 0.253 with BI-2536 + Pictilisib (first compound 0.3162 µM); 0.308 with BI-2536 + Pictilisib (first compound 1 µM); 0.717 in the experiment with BI-2536 + Trametinib (first compound 0.01 µM); 0.741 in the experiment with BI-2536 + Trametinib (first compound 0.03162 µM). Also, the relative viability with BI-2536 + Trametinib (first compound 0.1 µM) turned out to be 0.745; with BI-2536 + Trametinib (first compound 0.3162 µM), 0.253; with BI-2536 + Trametinib (first compound 1 µM), 0.252; with BI-2536 + Vorinostat (first compound 0.01 µM), 0.967; in the experiment with BI-2536 + Vorinostat (first compound 0.03162 µM), 0.98; with BI-2536 + Vorinostat (first compound 0.1 µM), 0.841. The values for the relative viability with BI-2536 + Vorinostat (first compound 0.3162 µM) and with BI-2536 + Vorinostat (first compound 1 µM) were 0.254 and 0.31, respectively.
With NCI-H23, the relative viability in experiment [1] (first compound 0.01 µM) stood at 0.752; in experiment [1] (first compound 0.03162 µM), 0.788; in experiment [1] (first compound 0.1 µM), 0.684; in experiment [1] (first compound 0.3162 µM), 0.718; in experiment [1] (first compound 1 µM), 0.85; with BI-2536 + Pictilisib (first compound 0.01 µM), 0.424. Further, the relative viability with BI-2536 + Pictilisib (first compound 0.03162 µM) worked out at 0.272; in the experiment with BI-2536 + Pictilisib (first compound 0.1 µM), 0.169; with BI-2536 + Pictilisib (first compound 0.3162 µM), 0.139; with BI-2536 + Pictilisib (first compound 1 µM), 0.14; with BI-2536 + Trametinib (first compound 0.01 µM), 0.372; in the experiment with BI-2536 + Trametinib (first compound 0.03162 µM), 0.464. Further, the relative viability came out at 0.201 with BI-2536 + Trametinib (first compound 0.1 µM); 0.112 with BI-2536 + Trametinib (first compound 0.3162 µM); 0.14 with BI-2536 + Trametinib (first compound 1 µM); 0.527 with BI-2536 + Vorinostat (first compound 0.01 µM); 0.555 in the experiment with BI-2536 + Vorinostat (first compound 0.03162 µM); 0.133 with BI-2536 + Vorinostat (first compound 0.1 µM). For the same cell line, the relative viability came to 0.133 with BI-2536 + Vorinostat (first compound 0.3162 µM) and 0.157 with BI-2536 + Vorinostat (first compound 1 µM).
Regarding LOU-NH91, the relative viability in experiment [1] (first compound 0.01 µM) came to 0.621; in experiment [1] (first compound 0.03162 µM), 0.709; in experiment [1] (first compound 0.1 µM), 0.706; in experiment [1] (first compound 0.3162 µM), 0.563; in experiment [1] (first compound 1 µM) it was 0.884; with BI-2536 + Pictilisib (first compound 0.01 µM), 0.545. The relative viability with BI-2536 + Pictilisib (first compound 0.03162 µM) stood at 0.516; with BI-2536 + Pictilisib (first compound 0.1 µM), 0.474; with BI-2536 + Pictilisib (first compound 0.3162 µM), 0.284; with BI-2536 + Pictilisib (first compound 1 µM), 0.276; in the experiment with BI-2536 + Trametinib (first compound 0.01 µM), 0.798; in the experiment with BI-2536 + Trametinib (first compound 0.03162 µM), 0.736. Also, the relative viability was determined as 0.682 in the experiment with BI-2536 + Trametinib (first compound 0.1 µM); 0.332 in the experiment with BI-2536 + Trametinib (first compound 0.3162 µM); 0.33 with BI-2536 + Trametinib (first compound 1 µM); 0.915 with BI-2536 + Vorinostat (first compound 0.01 µM); 0.865 in the experiment with BI-2536 + Vorinostat (first compound 0.03162 µM); 0.443 with BI-2536 + Vorinostat (first compound 0.1 µM). The relative viability with BI-2536 + Vorinostat (first compound 0.3162 µM) is 0.311; in the experiment with BI-2536 + Vorinostat (first compound 1 µM) it was 0.264.
Turning to NCI-H2085, the relative viability in experiment [1] (first compound 0.01 µM) is 0.765; in experiment [1] (first compound 0.03162 µM) it was 0.735; in experiment [1] (first compound 0.1 µM), 0.682; in experiment [1] (first compound 0.3162 µM) it was 0.668; in experiment [1] (first compound 1 µM), 0.695; with BI-2536 + Pictilisib (first compound 0.01 µM) it was 0.395. Also, the relative viability came to 0.504 with BI-2536 + Pictilisib (first compound 0.03162 µM); 0.371 with BI-2536 + Pictilisib (first compound 0.1 µM); 0.183 with BI-2536 + Pictilisib (first compound 0.3162 µM); 0.224 with BI-2536 + Pictilisib (first compound 1 µM); 0.523 with BI-2536 + Trametinib (first compound 0.01 µM); 0.52 in the experiment with BI-2536 + Trametinib (first compound 0.03162 µM). Besides, the relative viability with BI-2536 + Trametinib (first compound 0.1 µM) is 0.439; with BI-2536 + Trametinib (first compound 0.3162 µM), 0.144; with BI-2536 + Trametinib (first compound 1 µM), 0.177; with BI-2536 + Vorinostat (first compound 0.01 µM), 0.855; with BI-2536 + Vorinostat (first compound 0.03162 µM), 0.77; in the experiment with BI-2536 + Vorinostat (first compound 0.1 µM), 0.469. The figures for the relative viability with BI-2536 + Vorinostat (first compound 0.3162 µM) and in the experiment with BI-2536 + Vorinostat (first compound 1 µM) were 0.231 and 0.304, respectively.
For the cell line COR-L23, the relative viability in experiment [1] (first compound 0.01 µM) was determined as 0.397; in experiment [1] (first compound 0.03162 µM), 0.453; in experiment [1] (first compound 0.1 µM), 0.491; in experiment [1] (first compound 0.3162 µM), 0.434; in experiment [1] (first compound 1 µM), 0.438; with BI-2536 + Pictilisib (first compound 0.01 µM), 0.636. Besides, the relative viability with BI-2536 + Pictilisib (first compound 0.03162 µM) came to 0.593; with BI-2536 + Pictilisib (first compound 0.1 µM), 0.101; with BI-2536 + Pictilisib (first compound 0.3162 µM) it was 0.0743; with BI-2536 + Pictilisib (first compound 1 µM) it was 0.0991; with BI-2536 + Trametinib (first compound 0.01 µM) it was 0.579; with BI-2536 + Trametinib (first compound 0.03162 µM), 0.582. Also, the relative viability with BI-2536 + Trametinib (first compound 0.1 µM) is 0.394; with BI-2536 + Trametinib (first compound 0.3162 µM), 0.0573; with BI-2536 + Trametinib (first compound 1 µM), 0.0949; with BI-2536 + Vorinostat (first compound 0.01 µM), 0.438; with BI-2536 + Vorinostat (first compound 0.03162 µM), 0.281; in the experiment with BI-2536 + Vorinostat (first compound 0.1 µM), 0.135. Besides, the relative viability amounted to 0.0945 with BI-2536 + Vorinostat (first compound 0.3162 µM) and 0.0882 with BI-2536 + Vorinostat (first compound 1 µM).
In the case of BEN, the relative viability in experiment [1] (first compound 0.01 µM) was 0.229; in experiment [1] (first compound 0.03162 µM), 0.228; in experiment [1] (first compound 0.1 µM), 0.276; in experiment [1] (first compound 0.3162 µM), 0.245; in experiment [1] (first compound 1 µM), 0.253; with BI-2536 + Pictilisib (first compound 0.01 µM) it was 0.574. Further, the relative viability with BI-2536 + Pictilisib (first compound 0.03162 µM) is 0.48; with BI-2536 + Pictilisib (first compound 0.1 µM), 0.389; in the experiment with BI-2536 + Pictilisib (first compound 0.3162 µM), 0.235; with BI-2536 + Pictilisib (first compound 1 µM), 0.209; in the experiment with BI-2536 + Trametinib (first compound 0.01 µM), 1.05; in the experiment with BI-2536 + Trametinib (first compound 0.03162 µM), 0.813. The relative viability was 0.959 in the experiment with BI-2536 + Trametinib (first compound 0.1 µM); 0.515 with BI-2536 + Trametinib (first compound 0.3162 µM); 0.435 with BI-2536 + Trametinib (first compound 1 µM); 0.574 with BI-2536 + Vorinostat (first compound 0.01 µM); 0.452 in the experiment with BI-2536 + Vorinostat (first compound 0.03162 µM); 0.412 with BI-2536 + Vorinostat (first compound 0.1 µM). The relative viability with BI-2536 + Vorinostat (first compound 0.3162 µM) was determined as 0.386; with BI-2536 + Vorinostat (first compound 1 µM) it was 0.38.
ChaGo-K-1: the relative viability stood at 0.472 in experiment [1] (first compound 0.01 µM); 0.575 in experiment [1] (first compound 0.03162 µM); 0.544 in experiment [1] (first compound 0.1 µM); 0.476 in experiment [1] (first compound 0.3162 µM); 0.478 in experiment [1] (first compound 1 µM); 0.643 with BI-2536 + Pictilisib (first compound 0.01 µM). For the same cell line, the relative viability in the experiment with BI-2536 + Pictilisib (first compound 0.03162 µM) turned out to be 0.535; with BI-2536 + Pictilisib (first compound 0.1 µM), 0.243; with BI-2536 + Pictilisib (first compound 0.3162 µM), 0.275; in the experiment with BI-2536 + Pictilisib (first compound 1 µM), 0.354; with BI-2536 + Trametinib (first compound 0.01 µM), 0.9; in the experiment with BI-2536 + Trametinib (first compound 0.03162 µM), 0.875. Further, the relative viability was found to be 0.733 with BI-2536 + Trametinib (first compound 0.1 µM); 0.181 with BI-2536 + Trametinib (first compound 0.3162 µM); 0.202 with BI-2536 + Trametinib (first compound 1 µM); 0.764 in the experiment with BI-2536 + Vorinostat (first compound 0.01 µM); 0.749 in the experiment with BI-2536 + Vorinostat (first compound 0.03162 µM); 0.265 with BI-2536 + Vorinostat (first compound 0.1 µM). For the same cell line, the relative viability with BI-2536 + Vorinostat (first compound 0.3162 µM) stood at 0.182; with BI-2536 + Vorinostat (first compound 1 µM), 0.196.
